Assay results from patent US7534785B2, “3,6-dihydro-2-oxo-6H-1,3,4,-thiadiazine derivatives” (Merck Patent Gesellschaft, priority 2005, dated 2009).

These molecules were tested against T1, Met kinase (Homo sapiens, UniProt P08581) (assay: Met kinase inhibition, flashplate method). Conditions: 1 μM ATP, substrate pAGLT, 3 hrs at room temperature, read-out: IC50 (enzyme).
T1 construct: 6His (N); purchased Upstate 14-526; host or cells: Sf21 insect cells (S. frugiperda), baculovirus
Assay type: biochemical
Description: According to the manufacturer's data (Met, active, upstate, catalogue No. 14-526), Met kinase is expressed for the purposes of protein production in insect cells (Sf21; S. frugiperda) and subsequent affinity-chromatographic purification as “N-terminal 6His-tagged” recombinant human protein in a baculovirus expression vector.
The test plates used are 96-well Flashplate® microtitre plates from Perkin Elmer (Cat. No. SMP200). The components of the kinase reaction described below are pipetted into the assay plate. The Met kinase and the substrate poly Ala-Glu-Lys-Tyr, (pAGLT, 6:2:5:1), are incubated for 3 hrs at room temperature with radioactively labelled ^33P-ATP in the presence and absence of test substances in a total volume of 100 μl. The reaction is terminated using 150 μl of a 60 mM EDTA solution. After incubation for a further 30 min at room temperature, the supernatants are filtered off with suction, and the wells are washed three times with 200 μl of 0.9% NaCl solution each time. The measurement of the bound radioactivity is carried out by means of a scintillation measuring instrument (Topcount NXT, Perkin-Elmer).
The full value used is the inhibitor-free kinase reaction. This should be approximately in the range 6000-9000 cpm. The pharmacological zero value used is staurosporin in a final concentration of 0.1 mM. The inhibitory values (IC50) are determined using the RS1_MTS program.
Kinase Reaction Conditions per Well: • 30 μl of assay buffer • 10 μl of substance to be tested in assay buffer with 10% of DMSO • 10 μl of ATP (final concentration 1 μM cold, 0.35 μCi of ^33P-ATP) • 50 μl of Met kinase/substrate mixture in assay buffer; • (10 ng of enzyme/well, 50 ng of pAGLT/well)
Solutions Used: • Assay Buffer: • 50 mM HEPES • 3 mM magnesium chloride • 3 μM sodium orthovanadate • 3 mM manganese(II) chloride • 1 mM dithiothreitol (DTT) • pH=7.5 (to be set using sodium hydroxide) • Stop Solution: • 60 mM Titriplex III (EDTA) • ^33P-ATP: Perkin-Elmer; • Met kinase: Upstate, Cat. No. 14-526, Stock 1 μg/10 μl; spec. activity 954 U/mg; • Poly-Ala-Glu-Lys-Tyr, 6:2:5:1:Sigma Cat. No. P1152

T1 sequence (P08581 25-1390): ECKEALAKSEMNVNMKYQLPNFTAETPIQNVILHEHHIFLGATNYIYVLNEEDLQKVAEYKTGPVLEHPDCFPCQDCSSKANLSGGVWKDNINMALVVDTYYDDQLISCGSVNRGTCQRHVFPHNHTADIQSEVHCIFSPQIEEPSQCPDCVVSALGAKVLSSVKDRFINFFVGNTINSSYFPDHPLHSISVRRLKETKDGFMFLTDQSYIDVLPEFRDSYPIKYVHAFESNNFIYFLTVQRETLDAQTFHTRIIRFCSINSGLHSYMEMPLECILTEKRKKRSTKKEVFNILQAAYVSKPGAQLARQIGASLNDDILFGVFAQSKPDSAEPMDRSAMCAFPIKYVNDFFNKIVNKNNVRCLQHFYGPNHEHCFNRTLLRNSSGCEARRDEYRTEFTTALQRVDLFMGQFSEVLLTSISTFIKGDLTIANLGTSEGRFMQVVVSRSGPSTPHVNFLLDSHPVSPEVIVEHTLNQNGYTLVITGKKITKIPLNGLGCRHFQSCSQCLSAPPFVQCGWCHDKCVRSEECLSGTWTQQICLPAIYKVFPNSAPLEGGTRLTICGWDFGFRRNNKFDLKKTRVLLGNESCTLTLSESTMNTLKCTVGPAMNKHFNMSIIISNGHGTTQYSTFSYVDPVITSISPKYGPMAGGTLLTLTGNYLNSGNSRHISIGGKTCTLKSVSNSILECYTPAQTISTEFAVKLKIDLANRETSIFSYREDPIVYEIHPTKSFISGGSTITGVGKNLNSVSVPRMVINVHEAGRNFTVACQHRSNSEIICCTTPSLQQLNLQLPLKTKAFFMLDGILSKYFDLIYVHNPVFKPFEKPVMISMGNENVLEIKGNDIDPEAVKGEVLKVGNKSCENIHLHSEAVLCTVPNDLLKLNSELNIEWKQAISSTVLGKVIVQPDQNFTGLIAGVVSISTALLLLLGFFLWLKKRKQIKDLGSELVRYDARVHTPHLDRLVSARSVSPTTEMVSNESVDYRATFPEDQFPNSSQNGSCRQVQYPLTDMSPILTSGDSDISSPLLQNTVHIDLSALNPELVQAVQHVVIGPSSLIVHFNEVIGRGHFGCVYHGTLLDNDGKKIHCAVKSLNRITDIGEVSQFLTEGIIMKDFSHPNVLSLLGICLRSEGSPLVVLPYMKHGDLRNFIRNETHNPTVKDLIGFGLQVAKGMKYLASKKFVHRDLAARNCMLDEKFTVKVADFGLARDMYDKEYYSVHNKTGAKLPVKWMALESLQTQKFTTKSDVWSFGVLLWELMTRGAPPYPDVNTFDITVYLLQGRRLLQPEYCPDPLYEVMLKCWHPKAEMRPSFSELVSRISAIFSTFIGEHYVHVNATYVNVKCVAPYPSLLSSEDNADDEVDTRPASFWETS

IC50, 10 to 1000 nM:
C[C@H](O)CNC(=O)Nc1cccc(CN2N=C(c3ccc(Cl)cc3)CSC2=O)c1 [Compound A4]
CNCCNC(=O)Nc1cccc(CN2N=C(c3ccc(C#N)cc3)CSC2=O)c1 [Compound A10]
CCOC(=O)C(=O)Nc1cccc(CN2N=C(c3ccc(Cl)cc3)CSC2=O)c1 [Compound A9, ethyl N-{3-[5-(4-chlorophenyl)-2-oxo-6H-1,3,4-thiadiazin-3-ylmethyl]phenyl}oxalaminate]
CCNC(=O)Nc1cccc(CN2N=C(c3cc(Cl)ccc3O)CSC2=O)c1 [Compound A2]
CN1CCC(CNC(=O)Nc2cccc(CN3N=C(c4ccc(Cl)cc4)CSC3=O)c2)C1 (centres unmarked) [Compound A1, 1-{3-[5-(4-chlorophenyl)-2-oxo-6H-1,3,4-thiadiazin-3-ylmethyl]phenyl}-3-(1-methylpyrrolidin-3-ylmethyl)urea]
CCN(CC)CCCNC(=O)Nc1cccc(CN2N=C(c3ccc(Cl)cc3)CSC2=O)c1 [Compound A3]
CN(C)C(=O)Nc1cccc(CN2N=C(c3cc(Cl)ccc3O)CSC2=O)c1 [Compound A12]
O=C(NCCO)Nc1cccc(CN2N=C(c3ccc(Cl)cc3)CSC2=O)c1 [Compound A5]
